pIC50: −log10 of the molar value.
System: 80S14 (p21-deficient) cells
Assay: Determination of selectivity of compounds for p21-/- cells: IC50 in 80S14 cells (SRB)
Type: cell-based, human
Settings: 80S14 (p21-deficient) cells, 5 days at 37° C., SRB; read-out: IC50 for 80S14
Method: • 1. 80S14 (p21-deficient) cells were cultured in RPMI 1640 medium (Gibco/Invitrogen Life technologies) supplemented with 10% fetal bovine serum (FBS, Gibco) and 10 μg/ml gentamycin (Gibco). Cells were maintained at 37° C. under 7% CO2. • 2. Cells were plated at 6×10^4/ml (0.2 ml/well; 12,000 cells/well) in 96-well microtiter plates (Falcon or Corning/Costar) and incubated at 37° C. overnight (18-24 hours). • 3. 2-5 μl of the test agent-[200 μg/ml stock in 20% DMSO/20 mM HEPES, pH 7.5 (Gibco)] was added to each well to achieve a final concentration of 2-5 μg/ml. Cells were incubated with the test compounds for 5 days at 37° C. • 4. Surviving cells were fixed with 50 μl 50% trichloroacetic acid (Sigma; 10% final concentration) for 1 hour at 4° C. • 5. Plates were rinsed twice with water (0.3 ml per wash using MRD8 robot), and allowed to dry. • 6. Sulforhodamine B (SRB) (Sigma; 0.4% in 1% acetic acid, 50 μl per well; MRD8 robot) was added and plates kept at room temperature for 10 minutes. • 7. Excess dye was removed by washing with 1% acetic acid (3 times, 0.3 ml per wash; MRD8 robot) and allowed to dry. • 8. The dye was solubilized in Tris base (Sigma; 10 mM, 150 μl per well). Plates were kept at room temperature for 30 minutes to allow the dye to diffuse. • 9. Absorbance was measured at 540 nm. • 10. The percentage of cells surviving drug treatment relative to control wells (no drug) was determined. • 11. The difference in % cell survival between the two cell lines was calculated. • 12. Compounds producing a difference score of >50 were considered to be selective for the p21-deficient cells and were evaluated further. Determination of Selectivity of Compounds for p21−/− Cells: • 1. 80S14 cells were cultured as described above. • 2. Cells were seeded in 96-well microtiter plates at 12,000 cells/well (either 0.15 ml/well of 8×10^4 cells/ml suspension, or 0.2 ml/well of 6×10^4 cells/ml suspension). Plates were incubated at 37° C. overnight (18-24 hours). • 3. Serial dilutions of the test agent were added to each well. Dilutions were prepared either in 40% DMSO/20% methanol/20 mM HEPES, pH 7.5 (Gibco) or directly in growth medium. One of two dose ranges were used: 5 pM to 50 μM or 170 pg/ml to 10 μg/ml. Cells were incubated with the test compounds for 5 days at 37° C. • 4. Surviving cells were fixed with 50 μl 50% trichloroacetic acid (Sigma; 10% final concentration) for 1 hour at 4° C. • 5. Plates were rinsed extensively in water, and allowed to dry. • 6. Sulforhodamine B (Sigma; 0.4% in 1% acetic acid, 70 μl per well) was added and plates kept at room temperature for 10 minutes. • 7. Excess dye was removed by washing 5 times with 1% acetic acid and plates were allowed to dry. • 8. The dye was solubilized in Tris base (Sigma; 10 mM, 150 μl per well). Plates were placed on a titer plate shaker (Lab Line Instruments) for 5 minutes to allow the dye to diffuse. • 9. Absorbance was measured at 560 nm.
10. The drug concentration which inhibits cell proliferation by 50% relative to untreated controls (IC50) was determined from cytotoxicity curves.

Row | Compound | pIC50
1 | CCS(=O)(=O)Nc1cccc(-c2ccnc3c(C(=O)c4cccs4)cnn23)c1 [Example 21, N-{3-[-(thien-2-ylcarbonyl)pyrazolo[1,5-a]pyrimidin-7-yl]phenyl}ethanesulfonamide] | > 6.00
2 | COC(=O)CCC(=O)Nc1cccc(-c2ccnc3c(C(=O)c4cccs4)cnn23)c1 [Example 35, methyl 4-oxo-4-({3-[3-(thien-2-ylcarbonyl)pyrazolo[1,5-a]pyrimidin-7-yl]phenyl}anmino)butanoate] | 4.30 to 5.00
3 | O=C(c1cccs1)c1cnn2c(-c3cccc(NC(=O)C(Cl)(Cl)Cl)c3)ccnc12 [Example 38, 2,2,2-trichloro-N-{3-[3-(thien-2-ylcarbonyl)pyrazolo[1,5-a]pyrimidin-7-yl]phenyl} acetamide] | 5.00 to 6.00
4 | CC12CCC(C(=O)Nc3cccc(-c4ccnc5c(C(=O)c6cccs6)cnn45)c3)(OC1=O)C2(C)C (centres unmarked) [Example 43] | > 6.00
5 | COCCOCC(=O)Nc1cccc(-c2ccnc3c(C(=O)c4cccs4)cnn23)c1 [Example 49, 2-(2-methoxyethoxy)-N-{3-[3-(thien-2-ylcarbonyl)pyrazolo[1,5-a]pyrimidin-7-yl]phenyl} acetamide] | 5.00 to 6.00
6 | NCC(=O)Nc1cccc(-c2ccnc3c(C(=O)c4cccs4)cnn23)c1 [Example 59, N-1--{3-[3-(thien-2-ylcarbonyl)pyrazolo[1,5-a]pyrimidin-7-yl]phenyl}glycinamide] | 4.30 to 5.00
7 | C[C@H](N)C(=O)Nc1cccc(-c2ccnc3c(C(=O)c4cccs4)cnn23)c1 [Example 60, N-1-{3-[3-(thien-2-ylcarbonyl)pyrazolo[1,5-a]pyrimidin-7-yl]phenyl}-L-alaninamide] | 5.00 to 6.00
8 | CC(C)C[C@H](N)C(=O)Nc1cccc(-c2ccnc3c(C(=O)c4cccs4)cnn23)c1 [Example 61, N-1-{3-[3-(thien-2-ylcarbonyl)pyrazolo[1,5-a]pyrimidin-7-yl]phenyl}-L-leucinamide] | 4.30 to 5.00
9 | CC[C@H](C)[C@H](N)C(=O)Nc1cccc(-c2ccnc3c(C(=O)c4cccs4)cnn23)c1 [Example 62, N-1-{3-[3-(thien-2-ylcarbonyl)pyrazolo[1,5-a]pyrimidin-7-yl]phenyl}-L-isoleucinamide] | 5.00 to 6.00
10 | N[C@@H](CC1CCCCC1)C(=O)Nc1cccc(-c2ccnc3c(C(=O)c4cccs4)cnn23)c1 [Example 64, 3-cyclohexyl-N-1-{3-[3-(thien-2-ylcarbonyl)pyrazolo[1,5-a]pyrimidin-7-yl]phenyl}-L-alaninamide] | 4.30 to 5.00
11 | CC(C)[C@H](N)C(=O)Nc1cccc(-c2ccnc3c(C(=O)c4cccs4)cnn23)c1 [Example 65, N-1-{3-[3-(thien-2-ylcarbonyl)pyrazolo[1,5-a]pyrimidin-7-yl]phenyl}-L-valinamide] | 5.00 to 6.00
12 | O=C(COc1ccccc1)Nc1cccc(-c2ccnc3c(C(=O)c4cccs4)cnn23)c1 [Example 93, 2-phenoxy-N-{3-[3-(thien-2-ylcarbonyl)pyrazolo[1,5-a]pyrimidin-7-yl]pheriyl}acetamide] | 5.00 to 6.00
13 | CCCCCNC(=O)NCC(=O)Nc1cccc(-c2ccnc3c(C(=O)c4cccs4)cnn23)c1 [Example 118, N-2-[(pentylamino)carbonyl]-N-1-{3-[3-(thien-2-ylcarbonyl)pyrazolo[1,5-A]pyrimidin-7-yl]phenyl}glycinamide] | 4.30 to 5.00
14 | CCNC(=O)NCC(=O)Nc1cccc(-c2ccnc3c(C(=O)c4cccs4)cnn23)c1 [Example 119, N-2-[(ethylamino)carbonyl]-N-1-{3-[3-(thien-2-ylcarbonyl)pyrazolo[1,5-a]pyrimidin-7-1yl]phenyl}glycinamide] | 5.00 to 6.00
15 | O=C(CNC(=O)NC1CCCCC1)Nc1cccc(-c2ccnc3c(C(=O)c4cccs4)cnn23)c1 [Example 120, N-2-[(cyclohexylamino)carbonyl]-N-1-{3-[3-(thien-2-ylcarbonyl)pyrazolo[1,5-a]pyrimidin-7-yl]phenyl}glycinamide] | 5.00 to 6.00

Same assay, conditions: Cellular activity in 80S14 (p21-deficient) cells, SRB; class symbols; read-out: IC50 for 80S14

Row | Compound | pIC50
16 | 3-(3,5-Dimethylphenyl)-7-{3-[2-(2-piperidin-1-ylethyl)-2H-tetrazol-5-yl]phenyl}pyrazolo[1,5-a]pyrimidine [Example 388] | 5.00 to 6.00
17 | 3.5-Dinitro-N-{3-[3-(2-thienylcarbonyl)pyrazolo[1,5-a]pyrimidin-7-yl]phenyl}benzamide [Example 198] | 4.30 to 5.00

Same assay, conditions: Homo sapiens, 80S14, 120 h, read-out: IC50 for 80S14 (μM)

Row | Compound | IC50 [µM]
18 | C=C(C)OC(=O)Nc1cccc(-c2ccnc3c(C(=O)c4cccs4)cnn23)c1 [Example 15, isopropenyl3-[3-(thien-2-ylcarbonyl)pyrazolo[1,5-a]pyrimidin-7-yl]phenylcarbamate] | < 1

Same assay, conditions: Homo sapiens, 120 h; 80S14 (p21-deficient) cells, 5 days at 37° C., SRB; read-out: IC50 for 80S14

Row | Compound | pIC50
19 | C[C@H](NC(=O)Nc1cccc(-c2ccnc3c(C(=O)c4cccs4)cnn23)c1)c1ccccc1 [Example 9, N-[(1S)-1-phenylethyl]-N′-{3-[3-(thien-2-ylcarbonyl)pyrazolo [1,5-a]pyrimidin-7-yl]phenyl}urea] | 5.00 to 6.00
20 | O=C(c1cccs1)c1cnn2c(-c3cccc(NC(=O)[C@@H]4CCCN4C(=O)C(F)(F)F)c3)ccnc12 [Example 41, N-{3-[3-(thien-2-ylcarbonyl)pyrazolo[1,5-a]pyrimidin-7-yl]phenyl}-1-(trifluoroacetyl)-L-prolinamide] | 5.00 to 6.00
21 | O=C(c1cccs1)c1cnn2c(-c3cccc(NC(=O)C45CC6CC(CC(C6)C4)C5)c3)ccnc12 [Example 42, N-{3-[3-(thien-2-ylcarbonyl)pyrazolo[1,5-a]pyrimidin-7-yl]phenyl} adamantane-1-carboxamide] | > 6.00
22 | C#CCCC(=O)Nc1cccc(-c2ccnc3c(C(=O)c4cccs4)cnn23)c1 [Example 45, N-{3-[3-(thien-2-ylcarbonyl)pyrazolo[1,5-a]pyrimidin-7-yl]phenyl}pent-4-ynamide] | > 6.00
23 | CC(=O)OCC(=O)Nc1cccc(-c2ccnc3c(C(=O)c4cccs4)cnn23)c1 [Example 48, 2-oxo-2-({3-[3-(thien-2-ylcarbonyl)pyrazolo[1,5-a]pyrimidin-7-yl]phenyl}amino)ethyl acetate] | 5.00 to 6.00
24 | O=C(Cc1cccs1)Nc1cccc(-c2ccnc3c(C(=O)c4cccs4)cnn23)c1 [Example 50, 2-thien-2-yl-N-{3-[3-(thien-2-ylcarbonyl)pyrazolo[1,5-a]pyrimidin-7-yl]phenyl}acetamide] | > 6.00
25 | O=C(c1cccs1)c1cnn2c(-c3cccc(NC(=O)[C@@H]4CCCN4)c3)ccnc12 [Example 67, N-{3-[3-(thien-2-ylcarbonyl)pyrazolo[1,5-a]pyrimidin-7-yl]phenyl}-L-prolinamide] | 5.00 to 6.00
26 | N[C@H](C(=O)Nc1cccc(-c2ccnc3c(C(=O)c4cccs4)cnn23)c1)C1CCCCC1 [Example 68, (2S)-2-amino-2-cyclohexyl-N-{3-[3-(thien-2-ylcarbonyl)pyrazolo[1,5-a]pyrimidin-7-yl]phenyl}ethanamide] | 5.00 to 6.00
27 | O=C(Nc1cccc(-c2ccnc3c(C(=O)c4cccs4)cnn23)c1)c1ccc(Cl)cc1 [Example 71, 4-chloro-N-{3-[3-(thien-2-ylcarbonyl)pyrazolo[1,5-a]pyrimidin-7-yl]phenyl}benzamide] | 5.00 to 6.00
28 | CC(C)(C)C(=O)NCC(=O)Nc1cccc(-c2ccnc3c(C(=O)c4cccs4)cnn23)c1 [Example 114, 2,2-dimethyl-N-[2-oxo-2-({3-[3-(thien-2-ylcarbonyl)pyrazolo[1,5-a]pyrimidin-7-yl]phenyl}amino)ethyl]propanamide] | 5.00 to 6.00
29 | O=C(CNC(=O)C12CC3CC(CC(C3)C1)C2)Nc1cccc(-c2ccnc3c(C(=O)c4cccs4)cnn23)c1 [Example 116, N-[2-oxo-2-({3-[3-(thien-2-ylcarbonyl)pyrazolo[1,5-a]pyrimidin-7-yl]phenyl}amino)ethyl] adamantane-1-carboxamide] | 5.00 to 6.00

From patent publication US20060063785A1, “Substituted pyrazolo[1,5-a] pyrimidines and process for making same” (priority 2004, published 2006)
